The results in this text go back to patent publication US9040673B2, “Synthesis and identification of novel RSK-specific inhibitors” (University of Virginia Patent Foundation, priority 2009, dated 2015).

The subject of one assay is MCF-7 cells. Put plainly: MCF-7 cell proliferation (CellTiter-Glo cell viability). Format: cell-based, human. (In general: ATP-based viability assays read luminescence as a measure of living cells.)
Assay [1] relates to NIH/3T3 parental cell line. Put plainly: proliferation of parental NIH/3T3 cell line. Format: cell-based. An excerpt: The importance of MAPK to proliferation and oncogenesis is well established. However, the role that RSK plays in these processes has not been examined. […] SL0101-1 produced striking morphology changes in the transformed cells but not in the parental cell line. The vehicle control treated Ha-Ras transformed cells were elongated whereas in response to SL0101-1 the cells became much larger and flatter, appearing more like the parental cells, or like Ha-Ras transformed cells treated with U0126.
(§1) Cell Culture. For proliferation studies cells were seeded at 2500 to 5000 cells per well in 96 well tissue culture plates in the appropriate medium as described by American Type Culture Collection. After 24 hr, the medium was replaced with medium containing compound or vehicle as indicated. Cell viability was measured at indicated time points using CellTiter-Glo™ assay reagent (Promega) according to manufacturer's protocol. For in vivo inhibition studies, cells were seeded at 2.5×10^5 cells/well in 12 well cell culture clusters. After 24 hr, the cells were serum starved for 24 hr then incubated with compound or vehicle for 3 hr prior to a 30 min PDB stimulation. Cells were lysed as previously described (J. Biol. Chem. 273, 13317-13323 (1998)). The lysates were normalized for total protein, electrophoresed and immunoblotted. […]

Assay [2] relates to p140, a RSK substrate. Put plainly: PDB-induced p140 phosphorylation in MCF-7 cells (immunoblot). As to conditions: 100 μM, 3 hr pre-incubation, 500 nM PDB 30 min. Format: cell-based, human. Here is the method: (§2) To determine whether SL0101-1 inhibits RSK in intact cells, phosphorylation of p140, a RSK substrate of unknown function, was examined in a human breast cancer cell line, MCF-7. MCF-7 and MCF-10A cells were pre-incubated with vehicle, 50 μM U0126 or the indicated concentration of SL0101-1 for 3 hr (FIG. 8D). Cells were treated with 500 nM PDB for 30 min prior to lysis. Protein concentration of lysates was measured and lysates were electrophoresed, transferred and immunoblotted. […] Pre-incubation of cells with 100 μM SL0101-1 abrogates phorbol dibutyrate (PDB)-induced p140 phosphorylation as does 50 μM U0126, a MEK inhibitor.
as §1, with “(1998)).” for “(1998)). The lysates were normalized for total protein, electrophoresed and immunoblotted.”

Assay [3] concerns p140, a RSK substrate. The assay is described as follows: p140 phosphorylation in LNCaP line (anti-RPM antibody). Format: cell-based, human. Here is the method:
The ability of SL0101-1 to inhibit the proliferation of the androgen-dependent human prostate line, LNCaP was tested. […] To investigate the RSK signal transduction pathway in the LNCaP line, a phosphospecific antibody to a RSK phosphorylation motif (RPM) was produced. Only a few downstream effectors of RSK have been identified and therefore, applicants anticipated that an anti-RPM antibody would be a very effective tool for identifying novel RSK substrates in vivo. An anti-RPM antibody has previously been reported that recognizes the RSK substrate, p140, a protein of unknown function. […] All lysates were normalized to each other using an anti-Ran antibody. Ran is used for normalization based on the observations that it is a general housekeeping protein, the activity or expression levels of which are not known to vary in any disease state.

The next assay relates to MAPK, MEK, Raf and PKC. The assay is described as follows: effect on upstream kinases of PDB-stimulated RSK phosphorylation in intact cells (immunoblot). Format: cell-based, human. As to the method:
as §2
as §1, with “(1998)).” for “(1998)). The lysates were normalized for total protein, electrophoresed and immunoblotted.”
For orientation: Immunoblotting shows a protein as a band on a membrane.

The subject of assay [4] is RSK activity (eEF2 phosphorylation). Put plainly: eEF2 phosphorylation in J774A.1 macrophages. Format: cell-based, murine. As to conditions: J774A.1 cells. An excerpt: The translocation step in mRNA translation is mediated by eEF2. […] This phosphorylation is produced by a highly specific kinase, EF2 kinase (EF2K). RSK phosphorylates and inactivates EF2K in response to mitogenic stimulations, which leads to a decrease in eEF2 phosphorylation (Wang, et al. Embo J 20:4370-9). Under conditions in which RSK activity is low, as during serum deprivation, eEF2 is phosphorylated by the active EF2K. However, stimulation of RSK activity by mitogens such as phorbol dibutyrate (PDB) results in reduced phosphorylation of eEF2 due to inactivation of EF2K by RSK. Therefore, the phosphorylation state of eEF2 is an indicator of RSK activity. […] The levels of total eEF2 were not altered by any of the treatments.

Assay [5] concerns mouse primary peritoneal macrophages. Put plainly: LPS-induced iNOS expression in primary peritoneal macrophages. As to conditions: 60 μM, 1 μg/ml LPS, 24 hours. Format: cell-based.
Assay [6] relates to Yersinia pseudotuberculosis. Format: cell-based. As to conditions: 60 μM, 4 hours prior to infection (MOI=25).
The test system of the next assay is macrophages. Format: cell-based.
Assay [7] concerns HUVEC cells. The assay is described as follows: HUVEC cell growth. Format: cell-based, human.
Assay [8] deals with pp 140, a known RSK substrate. The assay is described as follows: pp 140 phosphorylation in HUVEC cells. Format: cell-based, human. As to conditions: 60 μM, 2 hr; with or without 500 nM phorbol dibutyrate. As to the method: HUVEC cells were seeded at a density of 3×10^5 cells per 35 mm dish and were maintained in complete growth medium. […] The cells were harvested and lysates prepared for SDS-PAGE and immunoblot analysis. The phosphorylation state of pp 140 was determined using a phosphospecific antibody generated against the phosphorylated peptide—LAS(P)TND.

The subject of the next assay is VCAM. The assay is described as follows: LPS-induced VCAM expression in HUVEC cells. Format: cell-based, human. As to conditions: 1 μg/ml LPS, 24 hours. The source says:
Twenty-four hours after LPS treatment, the cells were harvested with SDS lysis buffer in preparation for SDS-PAGE and immunoblot analysis. Lysates were normalized with regard to protein concentration. Equivalent loading was confirmed by use of an anti-Ran immunoblot.

Assay [9] relates to HUVEC cells. Put plainly: VEGF-induced capillary network formation in HUVEC cells. Format: cell-based, human. As to conditions: 60 μM, 10 ng/ml VEGF, 20 hours. As to the method: Interfering with tube formation is a characteristic common to anti-angiogenic treatments. HUVEC cells were seeded at a density of 1×10^5 cells per well in 24-well culture dishes coated in growth factor-reduced Matrigel (BD Biosciences). […] The cells were incubated at 37° C. for 20 hours. Images of the cells were captured for analysis of the capillary-like network.

For `CC(=O)O[C@@H]1[C@@H](OC(C)=O)[C@@H](O)[C@H](Oc2c(-c3ccc(O)cc3)oc3cc(O)cc(O)c3c2=O)O[C@H]1C` [SL0101, kaempferol 3-O-(3″,4″-di-O-acetyl-α-L-rhamnopyranoside)], the “inhibition of MCF-7 cell growth” value in the assay with MCF-7 cells (50 uM) is on record as “similarly effective at inhibiting MCF-7 cell growth”. For the same compound, the “proliferation of MCF-7 cells” value in the assay on MCF-7 cells (50 μM (FIG. 8A)) is “inhibited proliferation”. Also, the EC50 with MCF-7 cells (Homo sapiens, MCF7, read-out: EC50 of MCF-7 cell proliferation inhibition) was roughly 50 µM. In assay [1], the “proliferation of the parental line” value is recorded as “little effect on proliferation”. For the same compound, in the assay on p140, a RSK substrate [2], the “PDB-induced p140 phosphorylation” value is “abrogates”. In addition, in the assay with p140, a RSK substrate [3], the “phosphorylation of p140” value is recorded as “decrease the phosphorylation of p140”. In addition, the “phosphorylation of RSK2” value in the assay with MAPK, MEK, Raf and PKC is “does not effect the phosphorylation of RSK2”. The peEF2 levels entry in assay [4] is on record as “increases peEF2 levels”. Also, in [5], the “LPS-induced iNOS expression” value was “abrogates iNOS expression”. Moreover, in [6], the “live bacteria extracted from treated macrophages” value is listed as “fewer live bacteria are extracted”. Besides, the “Y. pseudotuberculosis-induced actin rearrangement” value with macrophages is recorded as “actin rearrangement is not observed”. Besides, the “rate of HUVEC cell growth” value in the assay on HUVEC cells [7] is “does not alter the rate of HUVEC cell growth”. Further, the “phosphorylation of pp 140” value in assay [8] is reported as “reduced the phosphorylation of pp 140”. In the assay with VCAM, the “expression of VCAM” value is listed as “reduced expression of the angiogenesis marker VCAM in a dose-dependent manner”. Besides, the capillary-like network formation entry with HUVEC cells [9] is reported as “indistinguishable from those treated with SU1498”.
